From ChEMBL document CHEMBL5137081, “N-Heterocyclic 3-Pyridyl Carboxamide Inhibitors of DHODH for the Treatment of Acute Myelogenous Leukemia” (J Med Chem, 2022)
Converted amounts (≈) assume the structure as drawn.

Columns and labels:
MOLM-13 = experiment: Antiproliferative activity against human MOLM-13 cells incubated for 72 hrs by CellTiter-Glo assay; type: functional, cell-based; details: MOLM-13, 72 h
[1] = target: Dihydroorotate dehydrogenase (quinone), mitochondrial (Homo sapiens, UniProt Q02127); experiment: Inhibition of His fused human DHODH expressed in Escherichia coli using DHO as substrate by DCIP absorbance based colorimetry assay
[2] = Solubility of compound at pH 7 by HPLC analysis; type: physicochemical; details: buffer
[3] = Metabolic stability in human liver microsome assessed as intrinsic clearance pretreated for 5 mins followed by NADPH addition and measured upto 60 mins by HPLC-MS/MS analysis; type: ADME; details: microsomes, 1.083 h, time < 65 min
[4] = Stability in human hepatocytes assessed as intrinsic clearance measured per 10^6 cells incubated upto 120 mins by LC-MS/MS analysis; type: ADME, cell-based, Hepatocyte; details: 2 h
MDR1 = experiment: Efflux ratio of apparent permeability across basolateral to apical side over apical to basolateral side in dog MDCK-MDR1 cells; type: ADME, cell-based, Canis lupus familiaris

Sequence of Dihydroorotate dehydrogenase (quinone), mitochondrial (Q02127 whole entry, the tested form may be a part): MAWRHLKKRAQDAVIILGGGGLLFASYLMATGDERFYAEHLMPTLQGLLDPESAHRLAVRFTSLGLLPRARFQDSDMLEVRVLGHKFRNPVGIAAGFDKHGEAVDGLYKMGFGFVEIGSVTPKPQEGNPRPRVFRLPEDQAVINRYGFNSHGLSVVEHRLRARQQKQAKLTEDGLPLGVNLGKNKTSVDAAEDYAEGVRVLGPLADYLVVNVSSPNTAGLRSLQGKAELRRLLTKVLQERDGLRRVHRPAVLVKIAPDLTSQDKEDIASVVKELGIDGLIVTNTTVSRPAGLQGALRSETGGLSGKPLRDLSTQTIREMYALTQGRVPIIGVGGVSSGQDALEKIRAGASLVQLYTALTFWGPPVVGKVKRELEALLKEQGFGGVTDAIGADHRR

CCn1c(CO)nn(-c2nc(O[C@@H](C)C(F)(F)F)c(C(=O)Nc3c(Cl)ccnc3OC)cc2F)c1=O
IC50 (MOLM-13): 0.3 nM | IC50 [1]: 0.3 nM | solubility [2]: 51 µM (≈ 27.3 µg/mL) | CLH [3]: 10 µL/min/mg | CLH [4]: 51 µL/min/1e6 cells

CCn1c(CO)nn(-c2nc(O[C@@H](C)C(F)(F)F)c(C(=O)Nc3cnccc3Cl)cc2F)c1=O
IC50 (MOLM-13): 9.3 nM | IC50 [1]: 4.7 nM | CLH [3]: 45 µL/min/mg

CCn1c(CO)nn(-c2nc(O[C@@H](C)C(F)(F)F)c(C(=O)Nc3c(C)ccnc3F)cc2F)c1=O
IC50 (MOLM-13): 5 nM | IC50 [1]: 2.4 nM | solubility [2]: 61 µM (≈ 30.6 µg/mL) | CLH [3]: 14 µL/min/mg | CLH [4]: 61 µL/min/1e6 cells

CCn1c(CO)nn(-c2nc(O[C@@H](C)C(F)(F)F)c(C(=O)Nc3ccccc3F)cc2F)c1=O
IC50 (MOLM-13): 5 nM | IC50 [1]: 6.1 nM | CLH [3]: < 8 µL/min/mg

CCn1c(CO)nn(-c2nc(O[C@@H](C)C(F)(F)F)c(C(=O)Nc3c(C)cc(OC)nc3Cl)cc2F)c1=O
IC50 (MOLM-13): 3 nM | efflux ratio (MDR1): > 30 | IC50 [1]: 0.8 nM

CCn1c(CO)nn(-c2nc(O[C@@H](C)C(F)(F)F)c(C(=O)Nc3ncccc3Cl)cc2F)c1=O
IC50 (MOLM-13): 6.9 nM | IC50 [1]: 5.2 nM | solubility [2]: 98 µM (≈ 49.5 µg/mL) | CLH [3]: 9.1 µL/min/mg

CCn1c(CO)nn(-c2nc(SC(C)C)c(C(=O)Nc3c(F)cccc3Cl)cc2F)c1=O
IC50 (MOLM-13): 0.19 nM | IC50 [1]: 302 nM | CLH [3]: 15 µL/min/mg

CCn1c(CO)nn(-c2nc(OC3CCOC3)c(C(=O)Nc3c(F)cccc3Cl)cc2F)c1=O (racemic)
IC50 (MOLM-13): 25 nM | IC50 [1]: 32 nM

CCn1c(CO)nn(-c2nc(O[C@@H](C)C(F)(F)F)c(C(=O)Nc3c(F)cccc3Cl)cc2F)c1=O
IC50 (MOLM-13): 0.16 nM | IC50 [1]: 0.2 nM | solubility [2]: < 4 µM | CLH [3]: 10 µL/min/mg

CCC(C)Nc1nccc(-c2cnc3sc(C)cn3c2=O)n1 (stereo not drawn)
IC50 [1]: 1400 nM

CCn1c(CO)nn(-c2nc(O[C@@H](C)C(F)(F)F)c(C(=O)Nc3c(F)cnc(OC)c3Cl)cc2F)c1=O
IC50 (MOLM-13): 1.4 nM | IC50 [1]: 1.1 nM | solubility [2]: < 4 µM | CLH [3]: < 7.7 µL/min/mg

CCn1c(CO)nn(-c2nc(O[C@@H](C)C(F)(F)F)c(C(=O)Nc3cc(OC)ncc3C)cc2F)c1=O
IC50 (MOLM-13): 26 nM | efflux ratio (MDR1): 17 | IC50 [1]: 10 nM

CCn1c(CO)nn(-c2nc(O[C@@H](C)C(F)(F)F)c(C(=O)Nc3c(F)cncc3Cl)cc2F)c1=O
IC50 (MOLM-13): 3.6 nM | IC50 [1]: 2.3 nM

CCn1c(CO)nn(-c2nc(O[C@@H](C)C(F)(F)F)c(C(=O)Nc3ccc(C)nc3Cl)cc2F)c1=O
IC50 (MOLM-13): 13 nM | IC50 [1]: 14 nM

CCn1c(CO)nn(-c2nc(O[C@@H](C)C(F)(F)F)c(C(=O)Nc3c(Cl)ccnc3Cl)cc2F)c1=O
IC50 (MOLM-13): 0.7 nM | IC50 [1]: 0.6 nM | solubility [2]: 381 µM (≈ 205 µg/mL) | CLH [3]: 14 µL/min/mg | CLH [4]: 381 µL/min/1e6 cells

CCn1c(CO)nn(-c2nc(O[C@@H](C)C(F)(F)F)c(C(=O)Nc3c(F)cnc(OC)c3C#N)cc2F)c1=O
IC50 (MOLM-13): 1 nM | efflux ratio (MDR1): > 30 | IC50 [1]: 16 nM

CCn1c(CO)nn(-c2nc(OC(C)C)c(C(=O)Nc3c(F)cccc3Cl)cc2F)c1=O
IC50 (MOLM-13): 0.2 nM | IC50 [1]: 0.5 nM | solubility [2]: 4 µM (≈ 1.87 µg/mL) | CLH [3]: < 7.7 µL/min/mg

CCn1c(CO)nn(-c2nc(O[C@@H](C)C(F)(F)F)c(C(=O)Nc3ccncc3Cl)cc2F)c1=O
IC50 (MOLM-13): 61 nM | IC50 [1]: 23 nM | solubility [2]: < 4 µM | CLH [3]: 15 µL/min/mg

CCn1c(CO)nn(-c2nc(OC3CC(F)(F)C3(F)F)c(C(=O)Nc3c(F)cccc3Cl)cc2F)c1=O (stereo not drawn)
IC50 (MOLM-13): 20 nM | IC50 [1]: 22 nM

CCn1c(CO)nn(-c2nc(O[C@@H](C)C(F)(F)F)c(C(=O)Nc3c(Cl)ccnc3C)cc2F)c1=O
IC50 (MOLM-13): 5.3 nM | IC50 [1]: 1.9 nM | solubility [2]: > 400 µM | CLH [3]: < 7.7 µL/min/mg | CLH [4]: > 400 µL/min/1e6 cells

CCn1c(CO)nn(-c2nc(NC(C)C)c(C(=O)Nc3c(F)cccc3Cl)cc2F)c1=O
IC50 (MOLM-13): 200 nM | IC50 [1]: 3600 nM

CCn1c(CO)nn(-c2nc(O[C@@H](C)C(F)(F)F)c(C(=O)Nc3cc(C)cnc3Cl)cc2F)c1=O
IC50 (MOLM-13): 50 nM | IC50 [1]: 5.7 nM

CCn1c(CO)nn(-c2nc(O[C@@H](C)C(F)(F)F)c(C(=O)Nc3c(C)ccnc3C(F)F)cc2F)c1=O
IC50 (MOLM-13): 4 nM | IC50 [1]: 2.4 nM | solubility [2]: > 400 µM | CLH [3]: < 7.7 µL/min/mg | CLH [4]: > 400 µL/min/1e6 cells

CCn1c(CO)nn(-c2nc(O[C@@H](C)C(F)(F)F)c(C(=O)Nc3c(C)cnc(OC)c3C)cc2F)c1=O
IC50 (MOLM-13): 2.1 nM | efflux ratio (MDR1): > 30 | IC50 [1]: 0.56 nM | solubility [2]: 373 µM (≈ 197 µg/mL) | CLH [3]: < 7.7 µL/min/mg

CCn1c(CO)nn(-c2nc(O[C@@H](C)C(F)(F)F)c(C(=O)Nc3cccnc3Cl)cc2F)c1=O
IC50 (MOLM-13): 6.5 nM | IC50 [1]: 2.8 nM | solubility [2]: < 4 µM | CLH [3]: < 8 µL/min/mg

CCn1c(CO)nn(-c2nc(O[C@@H](C)C(F)(F)F)c(C(=O)Nc3ccnc(OC)c3Cl)cc2F)c1=O
IC50 (MOLM-13): 13 nM | IC50 [1]: 11 nM | CLH [3]: < 7.7 µL/min/mg
